Data on 2 compounds can be found in publication PMC8881077 (Journal of Enzyme Inhibition and Medicinal Chemistry, 2022).

The target in data set [1] is T1, ratBuChE (Rattus norvegicus, UniProt Q9JKC1).
T1 construct: BuChE from rat serum or human serum (Sigma Co.); from tissue; host or cells: rat serum
The experiment in a line: ratBuChE inhibition, modified Ellman's method. It counts as biochemical. On the technique in general: DTNB colorimetry detects thiols as they appear.
Protocol: (§1) The AChE and BuChE inhibitory activities of the synthesised compounds were evaluated using the Ellman assay with slight modification. AChE from 5% rat cortex homogenate or human erythrocytes (Sigma Co.). BuChE from rat serum or human serum (Sigma Co.).

For data set [2], the target named is T2, huAChE (Homo sapiens, UniProt P22303). It counts as biochemical. On the set-up: AChE from human erythrocytes (Sigma Co.); purchased Sigma Co; host or cells: human erythrocytes. Conditions: for huAChE activity restored: 0.1 × IC50, at 60 min, Figure 2B; for huAChE activity increase when diluted to 0.1 × IC50: Figure 2A, dilution to 0.1 × IC50.
Protocol: In order to further explore the reversibility of inhibition, the recovery of huAChE inhibitors inhibition after dilution was carried out with time monitoring.
Data were expressed as the mean ± SEM by three independent experiments.
Data set [3] has as its system PC12 cells. The experiment in a line: Cytotoxicity on PC12 cells, MTT assay. It counts as cell-based. Conditions: 40 μM. In general terms: Tetrazolium assays rely on reduction of a dye to a coloured formazan, in cell work by metabolically active cells.
For data set [4], the target named is T2, huAChE. The experiment in a line: biochemical. It counts as biochemical. Also noted: AChE from 5% rat cortex homogenate or human erythrocytes (Sigma Co.); purchased Sigma Co; host or cells: human erythrocytes. To be noted: for SI: Selectivity Index = IC50 (BuChE)/IC50 (AChE), human enzymes; for IC50: from human erythrocytes, read-out: IC50 ± SD huAChE.
Protocol: as §1
The target of data set [5] is T3, huBuChE (Homo sapiens, UniProt P06276).
T3 construct: BuChE from rat serum or human serum (Sigma Co.); purchased Sigma Co; host or cells: human serum
Kind of data set: biochemical. It counts as biochemical. To be noted: from human serum; read-out: IC50 ± SD huBuChE.
Protocol: as §1

Data set [6] is described as follows: Metal-chelating property, UV-visual spectrometry. It counts as physicochemical. To be noted: for molar ratio at intersection: complex with Cu^2+; for maximum absorption wavelength after adding AlCl3: compound and AlCl3 37.5 μM in methanol; for maximum absorption wavelength after adding CuCl2: compound and CuCl2 37.5 μM in methanol; for maximum absorption after adding FeSO4: compound and FeSO4 37.5 μM in methanol; for maximum absorption after adding ZnCl2: compound and ZnCl2 37.5 μM in methanol. The protocol:
The chelating property of compounds 5f and 7k were determined by UV-visual spectrometry and biometals such as Cu^2+, Zn^2+, Al^3+ and Fe^2+ were applied[19]^,[20]. […] The stoichiometry of the 5f-Cu^2+ complex was determined using the molar ratio method by preparing solutions of compound 5f with increasing amounts of CuCl2 at 386 nm.
Further, the stoichiometry of the 7k-Cu^2+ complex was determined using the molar ratio method at 385 nm.
The metal chelation property was investigated by UV absorption in a Shimadzu UV-2450 spectrophotometer. The detailed procedure referenced our previous work[20]^,[22].

The conditions of data set [7]: PAMPA-BBB; for Pe: final concentration 100 μg/mL. Background: The PAMPA barrier holds no transporters, so it reflects passive diffusion.
Data set [8] concerns the target T4, ratAChE (Rattus norvegicus, UniProt P37136).
T4 construct: AChE from 5% rat cortex homogenate or human erythrocytes (Sigma Co.); from tissue; host or cells: 5% rat cortex homogenate
T4 sequence (P37136 32-614): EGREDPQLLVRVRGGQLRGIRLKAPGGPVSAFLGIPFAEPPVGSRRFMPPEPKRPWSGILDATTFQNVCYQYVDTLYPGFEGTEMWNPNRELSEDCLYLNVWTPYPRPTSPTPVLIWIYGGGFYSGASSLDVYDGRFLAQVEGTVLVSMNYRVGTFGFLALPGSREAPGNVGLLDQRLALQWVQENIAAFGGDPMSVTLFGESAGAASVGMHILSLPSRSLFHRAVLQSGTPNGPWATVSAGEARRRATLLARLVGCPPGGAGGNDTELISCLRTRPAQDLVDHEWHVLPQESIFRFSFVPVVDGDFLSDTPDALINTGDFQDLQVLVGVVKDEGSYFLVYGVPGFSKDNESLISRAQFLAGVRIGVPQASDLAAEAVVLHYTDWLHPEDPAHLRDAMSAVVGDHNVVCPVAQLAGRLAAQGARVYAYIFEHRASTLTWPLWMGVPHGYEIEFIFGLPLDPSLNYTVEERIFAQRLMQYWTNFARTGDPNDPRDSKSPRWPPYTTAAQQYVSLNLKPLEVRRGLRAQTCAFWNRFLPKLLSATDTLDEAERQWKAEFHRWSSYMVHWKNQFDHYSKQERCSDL
Kind of data set: biochemical. Conditions: for SI: Selectivity Index = IC50 (BuChE)/IC50 (AChE), rat enzymes; for IC50: from 5% rat cortex homogenate, read-out: IC50 ± SD ratAChE.
Protocol: as §1

Data set [9] concerns NO production in LPS-induced BV-2 cells. Kind of data set: NO production in BV-2 cells, Griess reaction. Conditions: for release volume of NO in BV-2 cells without LPS: 3 μM and 9 μM. It counts as cell-based. The protocol: Compounds 5f and 7k were selected to test the anti-inflammatory potency by measuring the production of inflammatory mediators TNF-α and NO in LPS-induced BV-2 cells[32]^,[33]. • Cytotoxicity of compounds 5f and 7k on BV-2 cells. Firstly, the cytotoxicity of compounds 5f and 7k were tested using an MTT assay. […] In inhibition of LPS-induced, NO production was tested through the Griess reaction method. […] In addition, to further investigate the effects of compounds 5f and 7k on LPS-induced TNF-α production in BV-2 cells, the enzyme-linked immunosorbent assay (ELISA) was used.
Griess reagent system was used to evaluate the inhibition of LPS-induced NO production. The methods of culturing BV-2 cells, setting blank control and adding tested compounds 5f or 7k (1 μM, 3 μM and 9 μM) and LPS were the same as those in the cytotoxicity assay. After that, the cell culture supernatants and different concentrations of NaNO2 as a standard were added to a 96-well plate since the NaNO2 concentration in the supernatant could act as an indicator of NO production. Then, to each well was added the same volume of Griess reagent and incubated at room temperature for 10 min. Finally, the absorbance was monitored at 540 nm using an ELISA plate reader to measure the results of NO production.

Where “and” joins values, the source holds several entries; their conditions need not be identical. Equal values may be shown once. Read-outs that look alike come from different tables or passages of the source.

In general, IC50 refers to the midpoint of a concentration-inhibition curve. Usually inhibition stands for the relative decrease from the control value, in per cent.

T2 sequence (P22303 32-617 isoform P22303-2 limits assumed): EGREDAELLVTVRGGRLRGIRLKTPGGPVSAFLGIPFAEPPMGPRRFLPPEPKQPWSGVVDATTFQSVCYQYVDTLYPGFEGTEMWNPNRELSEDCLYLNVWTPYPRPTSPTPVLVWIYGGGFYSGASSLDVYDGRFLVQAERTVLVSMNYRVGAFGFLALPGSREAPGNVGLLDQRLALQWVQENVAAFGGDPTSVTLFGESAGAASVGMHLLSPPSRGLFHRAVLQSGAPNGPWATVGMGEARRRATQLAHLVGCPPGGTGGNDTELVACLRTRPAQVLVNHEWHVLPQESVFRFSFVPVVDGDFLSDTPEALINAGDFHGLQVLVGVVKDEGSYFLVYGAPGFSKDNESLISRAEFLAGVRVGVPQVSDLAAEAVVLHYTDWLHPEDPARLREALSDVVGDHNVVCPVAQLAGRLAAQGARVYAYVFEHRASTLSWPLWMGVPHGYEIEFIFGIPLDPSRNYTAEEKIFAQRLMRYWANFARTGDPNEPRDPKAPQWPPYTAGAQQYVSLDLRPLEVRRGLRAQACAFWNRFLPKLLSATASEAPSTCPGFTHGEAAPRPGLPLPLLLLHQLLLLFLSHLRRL
T3 sequence (P06276 29-602): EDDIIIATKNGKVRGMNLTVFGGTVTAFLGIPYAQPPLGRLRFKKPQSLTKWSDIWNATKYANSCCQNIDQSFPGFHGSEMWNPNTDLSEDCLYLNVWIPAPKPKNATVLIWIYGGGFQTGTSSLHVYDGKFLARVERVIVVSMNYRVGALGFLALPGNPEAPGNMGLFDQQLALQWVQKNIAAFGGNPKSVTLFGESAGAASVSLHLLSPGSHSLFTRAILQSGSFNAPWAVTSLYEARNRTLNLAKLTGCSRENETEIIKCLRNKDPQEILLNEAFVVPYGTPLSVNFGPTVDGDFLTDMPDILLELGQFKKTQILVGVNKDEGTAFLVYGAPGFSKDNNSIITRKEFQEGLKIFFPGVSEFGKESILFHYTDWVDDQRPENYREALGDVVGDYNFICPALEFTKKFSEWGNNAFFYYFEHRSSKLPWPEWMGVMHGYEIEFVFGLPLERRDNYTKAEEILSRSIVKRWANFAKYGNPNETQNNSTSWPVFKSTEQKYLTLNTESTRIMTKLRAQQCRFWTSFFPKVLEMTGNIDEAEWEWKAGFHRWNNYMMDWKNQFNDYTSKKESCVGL
T1 sequence (Q9JKC1 24-597): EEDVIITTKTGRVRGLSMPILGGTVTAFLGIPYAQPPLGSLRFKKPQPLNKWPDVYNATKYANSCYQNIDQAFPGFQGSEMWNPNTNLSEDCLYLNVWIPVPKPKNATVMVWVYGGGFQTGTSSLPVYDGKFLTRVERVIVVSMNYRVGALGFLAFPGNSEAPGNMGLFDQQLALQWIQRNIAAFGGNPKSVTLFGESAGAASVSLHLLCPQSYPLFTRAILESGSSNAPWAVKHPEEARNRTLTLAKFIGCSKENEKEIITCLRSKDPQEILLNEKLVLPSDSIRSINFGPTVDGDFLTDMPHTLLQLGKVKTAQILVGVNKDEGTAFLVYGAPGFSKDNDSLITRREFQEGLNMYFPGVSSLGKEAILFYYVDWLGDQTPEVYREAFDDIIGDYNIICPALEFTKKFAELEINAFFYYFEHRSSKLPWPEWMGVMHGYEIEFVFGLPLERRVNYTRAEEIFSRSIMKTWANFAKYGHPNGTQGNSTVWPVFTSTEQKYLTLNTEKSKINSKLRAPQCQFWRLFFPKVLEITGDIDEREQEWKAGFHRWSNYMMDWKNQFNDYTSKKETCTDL

Take `CCN(CCCCCOc1cc(O)c2c(c1)OC(c1ccc(O)cc1)CC2=O)Cc1ccccc1` (stereo not drawn) [Compound 5f, 7-((5-(benzyl(ethyl)amino)pentyl)oxy)-5-hydroxy-2–(4-hydroxyphenyl)chroman-4-one]: the IC50 in [1] worked out at 16.9 ± 0.27 µM. For the same compound, in [2], the “reversibility of huAChE inhibition” value is on record as “reversible”, the huAChE activity restored is 89.8% and the “huAChE activity increase when diluted to 0.1 × IC50” value amounted to 6.9%. Also, the “huAChE activity (% control)” value in [2] (0.1*IC50, diluted) turned out to be 55.6 % control. For the same compound, in data set [2] (1*IC50, diluted), the “huAChE activity (% control)” value amounted to 48.7 % control. Also, in [2] (1*IC50, undiluted), the “huAChE activity (% control)” value is on record as 47.9 % control. In addition, the “cytotoxicity on PC12 cells” value in [3] is “did not show any cytotoxicity”. For the same compound, in data set [4], the SI stood at 6.9 and the IC50 was determined as 0.91 ± 0.02 µM. In addition, the IC50 in data set [5] worked out at 6.3 ± 0.74 µM. In addition, in data set [6], the “molar ratio at intersection” value amounted to 1.1, the “maximum absorption wavelength after adding AlCl3” value came out at 388 nm, the “maximum absorption wavelength after adding CuCl2” value is reported as 386 nm and the “maximum absorption after adding FeSO4” value is recorded as “did not present obvious shift”. The “maximum absorption after adding ZnCl2” value in data set [6] is listed as “did not present obvious shift”. Moreover, in data set [7], the Prediction entry is given as “CNS+ (Pe > 3.44 displayed high BBB permeation)” and the Pe stood at 6.9e-06 cm/s. For the same compound, in [8], the SI amounted to 9.9 and the IC50 came out at 1.7 ± 0.08 µM. Besides, the “release volume of NO in BV-2 cells without LPS” value in data set [9] (1 μM) is reported as “did not produce significant change”. The inhibition at 1 µM in data set [9] (Mus musculus, BV-2, 1 μM, 1 μg/mL LPS, read-out: inhibition rate of LPS-induced NO production) was found to be 37.6%. In addition, the inhibition at 3 µM in data set [9] (Mus musculus, BV-2, 3 μM, 1 μg/mL LPS, read-out: inhibition rate of LPS-induced NO production) was found to be 52.1%. The inhibition at 9 µM in [9] (Mus musculus, BV-2, 9 μM, 1 μg/mL LPS, read-out: inhibition rate of LPS-induced NO production) worked out at 63.8%.

In the case of “7-((6-(benzyl(ethyl)amino)hexyl)oxy)-2–(4-((6-(benzyl(ethyl)amino)hexyl)oxy)phenyl)-5-hydroxychroman-4-one [Compound 7k]”, the IC50 in [1] (BuChE from rat serum, read-out: IC50 ± SD ratBChE) came out at 14.8 ± 0.36 µM. Further, in data set [2], the “reversibility of huAChE inhibition” value is “reversible”, the huAChE activity restored came out at 96.8% and the “huAChE activity increase when diluted to 0.1 × IC50” value is given as 7.8%. For the same compound, in data set [2] (0.1*IC50, diluted), the “huAChE activity (% control)” value was determined as 61.2 % control. Further, the “huAChE activity (% control)” value in data set [2] (1*IC50, diluted) came to 53.4 % control. The “huAChE activity (% control)” value in [2] (1*IC50, undiluted) turned out to be 52.6 % control. Also, the “cytotoxicity on PC12 cells” value in data set [3] is on record as “did not show any cytotoxicity”. Further, in data set [4], the SI was determined as 14.4 and the IC50 turned out to be 0.57 ± 0.02 µM. For the same compound, the IC50 in data set [5] turned out to be 8.2 ± 0.37 µM. Moreover, in data set [6], the “molar ratio at intersection” value is reported as 1.1, the “maximum absorption wavelength after adding AlCl3” value is reported as “did not show an obvious change”, the “maximum absorption wavelength after adding CuCl2” value worked out at 385 nm and the “maximum absorption after adding FeSO4” value is given as “did not show an obvious change”. Moreover, the “maximum absorption after adding ZnCl2” value in [6] is given as “did not show an obvious change”. In [7], the Prediction entry is on record as “CNS+ (Pe > 3.44 displayed high BBB permeation)”; the Pe is 11.7 ×10^−6 cm/s and 11.7 ± 0.54 ×10^−6 cm/s. Besides, in [8], the SI came to 18.7 and the IC50 was determined as 0.79 ± 0.06 µM. Further, in [9] (1 μM, 1 μg/mL LPS), the “inhibition rate of LPS-induced NO production” value came to 26.7%. Also, the “release volume of NO in BV-2 cells without LPS” value in data set [9] (1 μM) was “did not produce significant change”. For the same compound, the “inhibition rate of LPS-induced NO production” value in data set [9] (3 μM, 1 μg/mL LPS) came out at 36.2%. In addition, the “inhibition rate of LPS-induced NO production” value in [9] (9 μM, 1 μg/mL LPS) is 48.5%.
